Assays:
[1] = biological target: Calcium/calmodulin-dependent protein kinase type II subunit alpha (Homo sapiens) (UniProt Q9UQM7); conditions: Compound concentration 1.0 uM
[2] = biological target: Tyrosine-protein kinase CSK (Homo sapiens) (UniProt P41240); assay: CSK DUNDEE kinase screen (BI); conditions: Compound concentration 10.0 uM
[3] = biological target: Myosin-IIIa (Homo sapiens) (UniProt Q8NEV4); conditions: Compound concentration 1.0 uM
[4] = biological target: Serine/threonine-protein kinase Sgk1 (Homo sapiens) (UniProt O00141); conditions: Compound concentration 1.0 uM
[5] = biological target: TGF-beta receptor type-2 (Homo sapiens) (UniProt P37173); conditions: Compound concentration 1.0 uM
Sequence of TGF-beta receptor type-2 (Homo sapiens) (P37173 whole entry): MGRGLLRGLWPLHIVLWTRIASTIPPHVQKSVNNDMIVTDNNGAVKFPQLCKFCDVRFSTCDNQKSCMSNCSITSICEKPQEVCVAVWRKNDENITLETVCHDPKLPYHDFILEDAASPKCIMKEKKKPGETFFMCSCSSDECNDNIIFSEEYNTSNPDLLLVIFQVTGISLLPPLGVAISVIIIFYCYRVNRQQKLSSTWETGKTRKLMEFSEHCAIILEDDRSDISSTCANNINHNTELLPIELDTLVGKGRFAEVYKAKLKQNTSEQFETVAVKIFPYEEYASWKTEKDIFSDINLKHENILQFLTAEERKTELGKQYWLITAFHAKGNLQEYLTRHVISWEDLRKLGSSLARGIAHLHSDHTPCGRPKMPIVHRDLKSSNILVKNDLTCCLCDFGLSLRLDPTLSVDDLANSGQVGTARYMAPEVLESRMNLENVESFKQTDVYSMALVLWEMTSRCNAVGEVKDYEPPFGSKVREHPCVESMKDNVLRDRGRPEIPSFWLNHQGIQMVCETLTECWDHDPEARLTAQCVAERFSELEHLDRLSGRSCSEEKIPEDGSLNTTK

[6] = biological target: Calcium/calmodulin-dependent protein kinase type II subunit gamma (Homo sapiens) (UniProt Q13555); conditions: Compound concentration 1.0 uM
[7] = biological target: Calcium/calmodulin-dependent protein kinase type II subunit delta (Homo sapiens) (UniProt Q13557); conditions: Compound concentration 1.0 uM
[8] = biological target: Serine/threonine-protein kinase Nek9 (Homo sapiens) (UniProt Q8TD19); conditions: Compound concentration 1.0 uM
[9] = biological target: Hormonally up-regulated neu tumor-associated kinase (Homo sapiens) (UniProt P57058); conditions: Compound concentration 1.0 uM
[10] = biological target: Platelet-derived growth factor receptor beta (Homo sapiens) (UniProt P09619)
Sequence of Platelet-derived growth factor receptor beta (Homo sapiens) (P09619 whole entry): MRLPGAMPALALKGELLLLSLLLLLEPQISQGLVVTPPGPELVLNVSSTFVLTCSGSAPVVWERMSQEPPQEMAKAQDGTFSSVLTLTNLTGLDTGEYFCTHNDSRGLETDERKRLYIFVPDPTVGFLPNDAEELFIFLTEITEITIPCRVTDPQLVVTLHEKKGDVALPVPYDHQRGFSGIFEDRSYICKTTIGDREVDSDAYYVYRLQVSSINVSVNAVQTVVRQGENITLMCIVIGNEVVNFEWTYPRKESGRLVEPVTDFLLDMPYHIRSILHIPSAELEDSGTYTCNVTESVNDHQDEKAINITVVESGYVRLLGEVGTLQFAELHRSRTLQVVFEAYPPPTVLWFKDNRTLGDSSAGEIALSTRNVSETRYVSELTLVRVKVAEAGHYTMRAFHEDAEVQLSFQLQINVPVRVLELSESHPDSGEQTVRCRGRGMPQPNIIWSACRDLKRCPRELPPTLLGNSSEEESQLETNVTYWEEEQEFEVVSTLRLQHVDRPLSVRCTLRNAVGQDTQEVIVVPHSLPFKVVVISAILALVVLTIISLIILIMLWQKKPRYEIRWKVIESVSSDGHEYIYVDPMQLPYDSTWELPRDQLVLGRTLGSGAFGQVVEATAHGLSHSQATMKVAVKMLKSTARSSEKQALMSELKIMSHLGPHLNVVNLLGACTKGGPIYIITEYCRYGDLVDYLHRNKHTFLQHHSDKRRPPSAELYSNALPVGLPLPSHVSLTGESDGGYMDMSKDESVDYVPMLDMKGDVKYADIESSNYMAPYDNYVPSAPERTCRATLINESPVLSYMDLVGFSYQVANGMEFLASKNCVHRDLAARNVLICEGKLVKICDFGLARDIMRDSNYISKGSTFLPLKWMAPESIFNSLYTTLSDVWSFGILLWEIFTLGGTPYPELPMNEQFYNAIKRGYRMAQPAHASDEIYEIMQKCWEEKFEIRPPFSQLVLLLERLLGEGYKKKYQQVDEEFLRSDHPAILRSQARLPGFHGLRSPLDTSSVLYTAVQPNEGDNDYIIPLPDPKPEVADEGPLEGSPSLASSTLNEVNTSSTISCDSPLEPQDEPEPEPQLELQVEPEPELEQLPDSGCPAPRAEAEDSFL

[11] = biological target: Prostaglandin G/H synthase 2 (Homo sapiens) (UniProt P35354); conditions: Compound concentration 10.0 uM
[12] = biological target: STE20-like serine/threonine-protein kinase (Homo sapiens) (UniProt Q9H2G2); conditions: Compound concentration 1.0 uM
[13] = biological target: AP2-associated protein kinase 1 (Homo sapiens, UniProt Q2M2I8); assay: NanoBRET (SGC-FFM) (AAK1)
[14] = biological target: Tyrosine-protein kinase Fes/Fps (Homo sapiens) (UniProt P07332); conditions: Compound concentration 1.0 uM
[15] = biological target: Serine/threonine-protein kinase ULK1 (Homo sapiens) (UniProt O75385); conditions: Compound concentration 1.0 uM
[16] = biological target: Serine/threonine-protein kinase Nek6 (Homo sapiens) (UniProt Q9HC98); conditions: Compound concentration 1.0 uM
[17] = biological target: Homeodomain-interacting protein kinase 4 (Homo sapiens) (UniProt Q8NE63); assay: HIPK4 Invitrogen Lab (UK) kinase screen (BI); conditions: Compound concentration 1.0 uM
[18] = biological target: Peripheral plasma membrane protein CASK (Homo sapiens) (UniProt O14936); assay: CASK Invitrogen Lab (UK) kinase screen (BI); conditions: Compound concentration 1.0 uM
[19] = biological target: Membrane-associated tyrosine- and threonine-specific cdc2-inhibitory kinase (Homo sapiens) (UniProt Q99640); conditions: Compound concentration 1.0 uM
[20] = biological target: Serine/threonine-protein kinase MARK2 (Homo sapiens) (UniProt Q7KZI7)
Sequence of Serine/threonine-protein kinase MARK2 (Homo sapiens) (Q7KZI7 whole entry): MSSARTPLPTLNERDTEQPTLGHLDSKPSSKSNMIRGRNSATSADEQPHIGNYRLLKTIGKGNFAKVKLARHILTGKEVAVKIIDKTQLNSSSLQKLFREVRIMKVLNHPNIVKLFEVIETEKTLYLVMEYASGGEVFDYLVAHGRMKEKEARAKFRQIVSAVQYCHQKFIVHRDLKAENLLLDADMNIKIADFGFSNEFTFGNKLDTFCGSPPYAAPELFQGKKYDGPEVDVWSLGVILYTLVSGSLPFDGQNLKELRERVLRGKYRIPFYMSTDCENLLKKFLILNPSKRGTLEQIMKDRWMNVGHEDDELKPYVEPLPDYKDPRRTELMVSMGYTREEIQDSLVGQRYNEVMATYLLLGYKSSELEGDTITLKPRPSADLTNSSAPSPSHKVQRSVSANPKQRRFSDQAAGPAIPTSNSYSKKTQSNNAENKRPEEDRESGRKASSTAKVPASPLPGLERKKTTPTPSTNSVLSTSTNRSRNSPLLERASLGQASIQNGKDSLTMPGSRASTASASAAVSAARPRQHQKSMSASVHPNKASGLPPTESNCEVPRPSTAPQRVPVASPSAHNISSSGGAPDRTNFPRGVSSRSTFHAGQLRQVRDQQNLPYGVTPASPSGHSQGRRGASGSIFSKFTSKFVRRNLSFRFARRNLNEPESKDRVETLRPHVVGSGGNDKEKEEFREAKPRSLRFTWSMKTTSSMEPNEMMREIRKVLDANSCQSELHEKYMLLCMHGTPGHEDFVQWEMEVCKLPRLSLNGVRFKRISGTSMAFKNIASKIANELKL

[21] = biological target: Myosin light chain kinase, smooth muscle (Homo sapiens) (UniProt Q15746); assay: SMMLCK DUNDEE kinase screen (BI); conditions: Compound concentration 10.0 uM
[22] = biological target: 5-hydroxytryptamine receptor 2B (Homo sapiens) (UniProt P41595); conditions: Compound concentration 10.0 uM
[23] = biological target: Serine/threonine-protein kinase TBK1 (Homo sapiens) (UniProt Q9UHD2); conditions: Compound concentration 1.0 uM
[24] = biological target: Phosphatidylinositol 4-kinase beta (Homo sapiens) (UniProt Q9UBF8); conditions: Compound concentration 1.0 uM
Sequence of Phosphatidylinositol 4-kinase beta (Homo sapiens) (Q9UBF8 2-816 limits assumed): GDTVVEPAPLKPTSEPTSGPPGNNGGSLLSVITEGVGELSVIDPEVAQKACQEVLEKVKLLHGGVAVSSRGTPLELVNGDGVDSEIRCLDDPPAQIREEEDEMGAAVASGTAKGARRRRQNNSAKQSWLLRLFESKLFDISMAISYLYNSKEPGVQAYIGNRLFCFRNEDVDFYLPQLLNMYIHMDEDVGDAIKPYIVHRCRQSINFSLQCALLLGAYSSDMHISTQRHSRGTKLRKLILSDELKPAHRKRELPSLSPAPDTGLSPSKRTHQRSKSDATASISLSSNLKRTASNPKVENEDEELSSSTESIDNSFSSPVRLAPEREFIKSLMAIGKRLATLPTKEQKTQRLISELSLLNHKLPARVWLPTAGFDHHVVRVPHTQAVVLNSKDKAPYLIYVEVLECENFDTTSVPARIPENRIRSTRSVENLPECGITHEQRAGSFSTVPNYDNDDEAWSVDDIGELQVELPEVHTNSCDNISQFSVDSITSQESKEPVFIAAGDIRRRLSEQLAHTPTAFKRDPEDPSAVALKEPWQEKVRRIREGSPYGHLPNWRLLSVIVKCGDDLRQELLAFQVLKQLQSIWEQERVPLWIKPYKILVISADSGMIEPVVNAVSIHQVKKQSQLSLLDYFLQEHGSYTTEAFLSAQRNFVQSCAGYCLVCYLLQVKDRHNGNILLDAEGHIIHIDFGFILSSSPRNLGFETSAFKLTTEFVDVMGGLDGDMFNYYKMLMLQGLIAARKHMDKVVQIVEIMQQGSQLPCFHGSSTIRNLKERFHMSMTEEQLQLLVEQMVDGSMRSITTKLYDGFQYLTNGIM

[25] = biological target: Tyrosine-protein kinase ABL2 (Homo sapiens) (UniProt P42684); conditions: Compound concentration 1.0 uM
[26] = biological target: Vascular endothelial growth factor receptor 3 (Homo sapiens) (UniProt P35916); conditions: Compound concentration 1.0 uM
[27] = biological target: Tyrosine-protein kinase ITK/TSK (Homo sapiens) (UniProt Q08881); assay: ITK Invitrogen Lab (UK) kinase screen (BI); conditions: Compound concentration 1.0 uM
Sequence of Tyrosine-protein kinase ITK/TSK (Homo sapiens) (Q08881 whole entry): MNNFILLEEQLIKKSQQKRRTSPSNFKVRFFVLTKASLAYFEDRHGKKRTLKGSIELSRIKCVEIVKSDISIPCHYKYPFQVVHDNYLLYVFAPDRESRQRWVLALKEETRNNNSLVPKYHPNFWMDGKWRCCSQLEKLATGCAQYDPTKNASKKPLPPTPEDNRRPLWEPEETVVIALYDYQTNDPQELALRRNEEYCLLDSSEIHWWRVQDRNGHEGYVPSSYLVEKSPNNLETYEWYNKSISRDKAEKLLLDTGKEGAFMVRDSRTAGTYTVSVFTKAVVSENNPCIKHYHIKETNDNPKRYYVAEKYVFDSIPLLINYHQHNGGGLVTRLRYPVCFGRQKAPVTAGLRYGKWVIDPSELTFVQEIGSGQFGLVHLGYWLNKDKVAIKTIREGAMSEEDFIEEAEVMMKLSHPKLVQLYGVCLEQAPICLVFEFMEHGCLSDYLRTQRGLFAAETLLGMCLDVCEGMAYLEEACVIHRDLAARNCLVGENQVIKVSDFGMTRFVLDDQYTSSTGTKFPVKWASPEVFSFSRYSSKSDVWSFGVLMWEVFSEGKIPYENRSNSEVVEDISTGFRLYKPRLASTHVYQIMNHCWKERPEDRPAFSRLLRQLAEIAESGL

[28] = biological target: Mitogen-activated protein kinase 1 (Homo sapiens) (UniProt P28482); assay: MAPK2ERK2 DUNDEE kinase screen (BI); conditions: Mus musculus; Compound concentration 10.0 uM
[29] = biological target: Tyrosine-protein kinase Srms (Homo sapiens) (UniProt Q9H3Y6); conditions: Compound concentration 1.0 uM
[30] = biological target: Serine/threonine-protein kinase 4 (Homo sapiens) (UniProt Q13043); assay: STK4 Invitrogen Lab (UK) kinase screen (BI); conditions: Compound concentration 1.0 uM
[31] = biological target: PI3-kinase p110-alpha/p85-alpha (Homo sapiens) (UniProt P27986+P42336); assay: PIK3CAPIK3R1 Invitrogen Lab (UK) kinase screen (BI); assay type: protein-complex assay; conditions: Compound concentration 1.0 uM
[32] = biological target: Mitogen-activated protein kinase 13 (Homo sapiens) (UniProt O15264); conditions: Compound concentration 1.0 uM
[33] = biological target: Wee1-like protein kinase (Homo sapiens) (UniProt P30291); conditions: Compound concentration 1.0 uM
Sequence of Wee1-like protein kinase (Homo sapiens) (P30291 whole entry, looked up): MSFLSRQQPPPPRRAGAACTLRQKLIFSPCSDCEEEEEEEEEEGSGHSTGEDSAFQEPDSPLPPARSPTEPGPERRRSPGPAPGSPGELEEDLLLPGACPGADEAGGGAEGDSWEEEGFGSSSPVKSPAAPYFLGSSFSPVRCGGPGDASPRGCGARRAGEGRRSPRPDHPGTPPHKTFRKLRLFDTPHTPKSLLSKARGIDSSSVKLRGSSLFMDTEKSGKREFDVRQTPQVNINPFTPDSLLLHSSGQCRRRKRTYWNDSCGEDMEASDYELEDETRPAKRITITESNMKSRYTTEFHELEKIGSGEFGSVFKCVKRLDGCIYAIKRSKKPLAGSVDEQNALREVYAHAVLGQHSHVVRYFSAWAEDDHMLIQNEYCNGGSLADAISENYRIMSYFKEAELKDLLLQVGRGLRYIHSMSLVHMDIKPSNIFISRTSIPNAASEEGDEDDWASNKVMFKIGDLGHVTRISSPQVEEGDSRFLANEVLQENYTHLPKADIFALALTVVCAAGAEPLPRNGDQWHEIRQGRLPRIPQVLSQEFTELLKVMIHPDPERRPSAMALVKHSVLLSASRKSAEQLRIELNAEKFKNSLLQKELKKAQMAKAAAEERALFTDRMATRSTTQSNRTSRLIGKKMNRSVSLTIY

[34] = biological target: Serine/threonine-protein kinase PAK 2 (Homo sapiens) (UniProt Q13177); conditions: Compound concentration 1.0 uM
[35] = biological target: Ribosomal protein S6 kinase beta-1 (Homo sapiens) (UniProt P23443); assay: S6K1 DUNDEE kinase screen (BI); conditions: Compound concentration 10.0 uM
[36] = biological target: 5'-AMP-activated protein kinase catalytic subunit alpha-2/beta-1/gamma-2 (Homo sapiens) (UniProt P54646+Q9UGJ0+Q9Y478); assay: AMPK (A2/B1/G2) Invitrogen Lab (UK) kinase screen (BI); assay type: protein-complex assay; conditions: Compound concentration 1.0 uM
[37] = biological target: Casein kinase I (Homo sapiens) (UniProt Q9HCP0+P78368+P48730+P49674+P48729); assay: CK1 DUNDEE kinase screen (BI); assay type: protein assay; conditions: Rattus norvegicus; Compound concentration 10.0 uM
[38] = biological target: Ephrin type-A receptor 1 (Homo sapiens) (UniProt P21709); conditions: Compound concentration 1.0 uM
[39] = biological target: cAMP-dependent protein kinase catalytic subunit beta (Homo sapiens) (UniProt P22694); assay: PRKACB (PRKAC BET Invitrogen Lab (UK) kinase screen (BI); conditions: Compound concentration 1.0 uM
[40] = biological target: GABA-A receptor; anion channel (Rattus norvegicus) (UniProt O09028+P15431+P18506+P18508+P19969+P20236+P23574+P23576+P28471+P28473+P30191+P62813+P63079+P63138+Q91ZM7+Q9ES14); conditions: Compound concentration 10.0 uM
[41] = biological target: Calcium/calmodulin-dependent protein kinase kinase 1 (Homo sapiens) (UniProt Q8N5S9); conditions: Compound concentration 1.0 uM

Sequence of Tyrosine-protein kinase CSK (Homo sapiens) (P41240 2-450 limits assumed): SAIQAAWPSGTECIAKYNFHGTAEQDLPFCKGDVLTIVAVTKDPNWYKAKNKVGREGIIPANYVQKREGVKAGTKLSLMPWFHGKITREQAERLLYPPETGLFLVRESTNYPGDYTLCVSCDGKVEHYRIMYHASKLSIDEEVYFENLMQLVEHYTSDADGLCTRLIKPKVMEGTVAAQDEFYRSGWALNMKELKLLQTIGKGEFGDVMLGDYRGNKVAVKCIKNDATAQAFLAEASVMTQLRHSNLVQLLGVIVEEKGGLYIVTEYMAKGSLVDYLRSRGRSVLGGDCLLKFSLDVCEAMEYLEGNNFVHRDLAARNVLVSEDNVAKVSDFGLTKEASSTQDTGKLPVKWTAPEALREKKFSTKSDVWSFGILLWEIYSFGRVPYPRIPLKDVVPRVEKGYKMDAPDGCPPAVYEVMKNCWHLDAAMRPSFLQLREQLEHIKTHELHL

## CCC(F)(F)c1cc(N2CCC(S(C)(=O)=O)CC2)nc2sc(C(N)=O)c(N)c12 [BI-605906]
[1]
  residual activity: 100%
[2]
  residual activity: 78.3%
[3]
  residual activity: 92%
[4]
  residual activity: 97%
[5]
  residual activity: 87%
[6]
  residual activity: 90%
[7]
  residual activity: 96%
[8]
  residual activity: 99%
[9]
  residual activity: 97%
[10]; Compound concentration 1.0 uM
  residual activity: 89%
[10]; Compound concentration 10.0 uM
  residual activity: 87%
[11]
  residual activity: 82%
[12]
  residual activity: 99%
[13]
  IC50: 7 µM (not active)
[14]
  residual activity: 91%
[15]
  residual activity: 94%
[16]
  residual activity: 95%
[17]
  residual activity: 77%
[18]
  residual activity: 52%
[19]
  residual activity: 90%
[20]; Compound concentration 1.0 uM
  residual activity: 90%
[20]; Compound concentration 10.0 uM
  residual activity: 87%
[21]
  residual activity: 57.7%
[22]
  inhibition: 13.4%
[23]
  residual activity: 96%
[24]
  residual activity: 92%
[25]
  residual activity: 91%
[26]
  residual activity: 97%
[27]
  residual activity: 107%
[28]
  residual activity: 90.1%
[29]
  residual activity: 99%
[30]
  residual activity: 102%
[31]
  residual activity: 103%
[32]
  residual activity: 94%
[33]
  residual activity: 82%
[34]
  residual activity: 95%
[35]
  residual activity: 56.3%
[36]
  residual activity: 88%
[37]
  residual activity: 68.6%
[38]
  residual activity: 82%
[39]
  residual activity: 77%
[40]
  inhibition: 32.6%
[41]
  residual activity: 93%

Reference: ChEMBL document CHEMBL4800722, “Data for DCP probe BI 605906” (2021)
